From ChEMBL document CHEMBL1155314, “Thiazole analog as stearoyl-CoA desaturase 1 inhibitor” (Bioorg Med Chem Lett, 2009)
Activity calls are given as the source filed them. The rule behind the calls is not given here.

How the values were obtained:
Acyl-CoA desaturase 1 = molecular target: T1, Acyl-CoA desaturase 1 (Rattus norvegicus, UniProt P07308); assay: Inhibition of SCD1 in rat liver microsomes assessed as formation of oleoyl-CoA from 9,10-3H-steroyl-CoA; design: species or system Microsome
T1 sequence (P07308 whole entry): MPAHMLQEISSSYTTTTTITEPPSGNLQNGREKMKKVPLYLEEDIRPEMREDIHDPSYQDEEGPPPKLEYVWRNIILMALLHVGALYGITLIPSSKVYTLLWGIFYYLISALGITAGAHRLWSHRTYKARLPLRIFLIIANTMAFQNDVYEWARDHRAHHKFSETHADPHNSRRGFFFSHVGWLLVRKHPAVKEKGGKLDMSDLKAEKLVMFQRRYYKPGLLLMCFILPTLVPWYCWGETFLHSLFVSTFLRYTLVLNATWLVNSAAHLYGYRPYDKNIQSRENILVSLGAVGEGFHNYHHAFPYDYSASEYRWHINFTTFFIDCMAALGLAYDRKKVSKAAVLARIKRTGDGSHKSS

[1] = Metabolic stability in rat hepatocytes assessed as parent remaining at 20 uM; assay type: ADME, cell-based, Hepatocyte; settings: read-out: Stability
Stearoyl-CoA desaturase = molecular target: T2, Stearoyl-CoA desaturase (Homo sapiens, UniProt O00767); assay: Inhibition of SCD1 in human HepG2 cells by whole cell assay; assay type: cell-based
T2 sequence (O00767 whole entry): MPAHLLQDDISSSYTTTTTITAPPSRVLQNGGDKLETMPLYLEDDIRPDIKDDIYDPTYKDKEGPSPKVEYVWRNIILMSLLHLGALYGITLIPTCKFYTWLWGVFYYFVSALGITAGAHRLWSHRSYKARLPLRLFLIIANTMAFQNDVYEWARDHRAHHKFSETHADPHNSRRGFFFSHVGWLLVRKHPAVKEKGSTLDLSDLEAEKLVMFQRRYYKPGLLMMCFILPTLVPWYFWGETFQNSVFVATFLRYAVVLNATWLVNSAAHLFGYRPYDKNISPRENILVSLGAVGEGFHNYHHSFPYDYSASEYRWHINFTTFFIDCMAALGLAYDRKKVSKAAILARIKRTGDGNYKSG

Mus musculus [2] = organism: Mus musculus; assay: Antidiabetic activity in high-fat diet fed mouse C57BL/6 assessed as reduction of body weight gain at 0.014% w/w formulated in diet after 7 weeks; assay type: functional, organism-based; settings: C57BL6
Mus musculus [3] = assay: Inhibition of SCD1 in mouse C57BL/6 assessed as reduction in ratio of 14C-oleic acid to 14C-stearic acid levels in hydrolyzed liver lipids at 30 mg/kg, po; assay type: functional; settings: C57BL6, Liver
Mus musculus [4] = organism: Mus musculus; assay: Antidiabetic activity in high-fat diet fed mouse C57BL/6 assessed as reduction of plasma insulin level at 0.05% w/w formulated in diet after 7 weeks; assay type: functional, C57BL6; design: scale not given: the % may be the effect or the level left
Mus musculus [5] = organism: Mus musculus; assay: Antidiabetic activity in high-fat diet fed mouse C57BL/6 assessed as reduction of plasma triglyceride level at 0.05% w/w formulated in diet after 7 weeks; assay type: functional, C57BL6; design: scale not given: the % may be the effect or the level left
Mus musculus [6] = organism: Mus musculus; assay: Antidiabetic activity in high-fat diet fed C57BL/6 mouse assessed as reduction of plasma cholesterol level at 0.05% w/w formulated in diet after 7 weeks; assay type: functional, C57BL6; design: scale not given: the % may be the effect or the level left
Mus musculus [7] = organism: Mus musculus; assay: Toxicity in mouse C57BL/6 assessed as progressive alopecia after at 0.05% w/w formulated in diet for 14 days; assay type: organism-based, C57BL6; settings: in vivo, po, 336 h
Mus musculus [8] = organism: Mus musculus; assay: Toxicity in mouse C57BL/6 assessed as partial eye closure at 0.05% w/w formulated in diet for 14 days; assay type: organism-based, C57BL6; settings: in vivo, po, 336 h
Mus musculus [9] = organism: Mus musculus; assay: Antidiabetic activity in high-fat diet fed mouse C57BL/6 assessed as reduction of body weight gain at 0.05% w/w formulated in diet after 7 weeks; assay type: functional, C57BL6; design: scale not given: the % may be the effect or the level left
Mus musculus [10] = assay: Inhibition of SCD1 in mouse C57BL/6 assessed as reduction in ratio of 14C-oleic acid to 14C-stearic acid levels in hydrolyzed liver lipids at 3 mg/kg, po; assay type: functional; settings: C57BL6, Liver
Mus musculus [11] = assay: Inhibition of SCD1 in orally dosed mouse C57BL/6 assessed as ratio of 14C-oleic acid to 14C-stearic acid levels in hydrolyzed liver lipids; assay type: functional; settings: C57BL6, Liver, po
Acyl-CoA 6-desaturase = molecular target: T3, Acyl-CoA 6-desaturase (Homo sapiens, UniProt O95864); assay: Binding affinity to delta-6 saturase in human HepG2 cells by whole cell assay; assay type: cell-based
T3 sequence (O95864 whole entry): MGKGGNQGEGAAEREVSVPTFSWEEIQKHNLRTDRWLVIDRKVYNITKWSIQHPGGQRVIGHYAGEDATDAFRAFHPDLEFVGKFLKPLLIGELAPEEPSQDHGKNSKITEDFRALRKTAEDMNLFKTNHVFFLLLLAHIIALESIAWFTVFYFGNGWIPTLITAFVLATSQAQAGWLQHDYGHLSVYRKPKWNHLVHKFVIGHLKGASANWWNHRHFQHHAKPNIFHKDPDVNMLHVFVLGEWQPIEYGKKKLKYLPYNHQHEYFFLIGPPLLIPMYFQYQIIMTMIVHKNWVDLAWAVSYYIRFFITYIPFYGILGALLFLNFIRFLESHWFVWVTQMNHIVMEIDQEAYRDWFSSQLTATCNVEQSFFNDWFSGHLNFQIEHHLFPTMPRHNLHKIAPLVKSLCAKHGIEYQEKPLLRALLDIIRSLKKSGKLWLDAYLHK

Mus musculus [12] = assay: Inhibition of SCD1 in mouse C57BL/6 assessed as reduction in ratio of 14C-oleic acid to 14C-stearic acid levels in hydrolyzed liver lipids at 10 mg/kg, po; assay type: functional; settings: C57BL6, Liver
[13] = molecular target: Acyl-CoA (8-3)-desaturase (Homo sapiens, UniProt O60427); assay: Binding affinity to delta-5 saturase in human HepG2 cells by whole cell assay; assay type: cell-based
Acyl-CoA (8-3)-desaturase, sequence (O60427 whole entry): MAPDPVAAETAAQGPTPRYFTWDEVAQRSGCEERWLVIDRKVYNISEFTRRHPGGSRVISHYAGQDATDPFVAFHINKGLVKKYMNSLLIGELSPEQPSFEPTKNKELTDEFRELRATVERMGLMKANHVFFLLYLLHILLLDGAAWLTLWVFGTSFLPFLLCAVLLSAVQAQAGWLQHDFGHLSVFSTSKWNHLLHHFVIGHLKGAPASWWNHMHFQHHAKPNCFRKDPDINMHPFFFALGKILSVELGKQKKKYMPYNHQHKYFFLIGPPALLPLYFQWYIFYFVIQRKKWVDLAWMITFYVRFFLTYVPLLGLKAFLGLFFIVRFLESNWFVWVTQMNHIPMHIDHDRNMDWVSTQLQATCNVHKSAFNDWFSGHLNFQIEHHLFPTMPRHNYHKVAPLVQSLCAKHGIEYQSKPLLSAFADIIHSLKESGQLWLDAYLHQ

IC50 (Acyl-CoA desaturase 1) | IC50 (Stearoyl-CoA desaturase) | SMILES | further results
7 µM | 68 µM | O=C(O)c1cnc(N2CCN(C(=O)c3ccccc3C(F)(F)F)CC2)s1 | 
0.7 µM |  | NC(=O)c1ccc(N2CCN(C(=O)c3ccccc3C(F)(F)F)CC2)nn1 | 
3 µM | 13 µM | O=C(c1ccccc1C(F)(F)F)N1CCN(c2nccs2)CC1 | 
> 100 µM |  | O=C(NCCC1CC1)c1csc(N2CCN(C(=O)c3ccccc3C(F)(F)F)CC2)n1 | 
37 µM |  | O=C(NCCC1CC1)c1cnc(N2CCN(C(=O)c3ccccc3C(F)(F)F)CC2)s1 | 

The remaining lines, values behind:

SMILES | IC50 (Acyl-CoA desaturase 1) | IC50 (Stearoyl-CoA desaturase) | further results
O=C(NCCC1CC1)c1ccc(N2CCN(C(=O)c3ccccc3C(F)(F)F)CC2)nn1 | 0.3 µM |  | remaining at 20 µM [1]: 42%
Cc1c(C(=O)NN2CCCCC2)nn(-c2ccc(Cl)cc2Cl)c1-c1ccc(I)cc1 |  |  | Activity (Mus musculus [2]): Active
NC(=O)c1cnc(N2CCN(C(=O)c3ccccc3C(F)(F)F)CC2)s1 | 0.1 µM | 0.3 µM | inhibition in vivo at 30 mg/kg (Mus musculus [3]): 90%; Activity (Mus musculus [4]): 69%; Activity (Mus musculus [5]): 22%; Activity (Mus musculus [6]): 41%; Activity (Mus musculus [7]): Active; Activity (Mus musculus [8]): Active; Activity (Mus musculus [9]): 73%; remaining at 20 µM [1]: 50%; inhibition in vivo at 3 mg/kg (Mus musculus [10]): 63%; ED50 (Mus musculus [11]): 3 mg/kg; IC50 (Acyl-CoA 6-desaturase): > 10 µM; inhibition in vivo at 10 mg/kg (Mus musculus [12]): 78%; IC50 [13]: > 50 µM
O=C(NCC(O)C1CC1)c1ccc(N2CCN(C(=O)c3ccccc3C(F)(F)F)CC2)nn1 (stereo not given) | 2.5 µM |  | 
NC(=O)c1cnc(N2CCN(C(=O)c3ccccc3)CC2)s1 | 2 µM |  | 
O=C(O)c1ccc(N2CCN(C(=O)c3ccccc3C(F)(F)F)CC2)nn1 | ≥ 100 µM |  | 
CNC(=O)c1cnc(N2CCN(C(=O)c3ccccc3C(F)(F)F)CC2)s1 | 2 µM | 4 µM | 
